Values of other authors as cited in paper PMC11215356 (Haematologica, 2024).

Tests used:
FL = FL patients
CLL/SLL = CLL/SLL patients, range over previous Syk inhibitor studies
[1] = system: patients treated with fostamatinib

COc1cc(Nc2ncc(F)c(Nc3ccc4c(n3)N(COP(=O)(O)O)C(=O)C(C)(C)O4)n2)cc(OC)c1OC [fostamatinib]
mPFS (FL): 5.7 months
ORR (CLL/SLL): 33-61%
mPFS (CLL/SLL): 5.6-13.8 months
diarrhea as a DLT event [1]: 21%
diarrhea as one of the most common TRAE [1]: 41%

c1cn2cc(-c3ccc4cn[nH]c4c3)nc(Nc3ccc(N4CCOCC4)cc3)c2n1 [entospletinib]
mPFS (FL): 4.6 months
ORR (CLL/SLL): 33-61%
mPFS (CLL/SLL): 5.6-13.8 months

CCS(=O)(=O)N1CCN(c2ccc(Nc3ncc(C(N)=O)c(NC4CC4)n3)cc2)CC1 [cerdulatinib]
ORR (CLL/SLL): 33-61%
mPFS (CLL/SLL): 5.6-13.8 months
